Measurements published in patent publication US11058758B2, “TH1-inducing adjuvant comprising combination of different nucleic acid adjuvants, and use of same” (National Institutes of Biomedical Innovation, Health and …, priority 2014, dated 2021).

How the values were obtained:
[1] = tested on: C57BL/6J mice; test: Intramuscular OVA immunization of mice: serum antibodies and splenocyte cytokines; format: in vivo, mouse; details: for serum anti-OVA IgG1 titer / OVA-specific IL-13 production by splenocytes: i.m. day 0 and day 10 with OVA; for serum anti-OVA IgG1 titer: serum day 17; for OVA-specific IL-13 production by splenocytes: splenocytes day 17, OVA 48 hours
Method: Mice were immunized intramuscularly on day 0 and day 10 with K3 CpG (10 μg), 3′3′/2′3′-cGAMP (1 μg), c-di-GMP (1 μg), DMXAA (50 μg), or OVA (10 μg) comprising or not comprising K3+3′3′/2′3′-cGAMP/c-di-GMP/DMXAA. On day 17, OVA specific sera IgG1 and IgG2c were measured by ELISA.
(B—C) mice were immunized intramuscularly on day 0 and day 10 with K3 CpG (10 μg), 3′3′/2′3′-cGAMP (1 μg), c-di-GMP (1 μg), DMXAA (50 μg), or OVA (10 μg) comprising or not comprising K3+3′3′/2′3′-cGAMP/c-di-GMP/DMXAA. Splenocytes were stimulated for 48 hours with OVA (10 μg/ml) protein. Production of IFNγ and IL-13 was measured by ELISA.
On day 17, the splenocytes were isolated and stimulated for 48 hours with a MHC class I (OVA257) or a MHC class II (OVA323) specific OVA or an OVA peptide.
On day 17, OVA specific sera IgG1 and IgG2c were measured by ELISA as previously described [Kuroda et al., Immunity. (2011) 34; 514-526]. The secondary antibodies used in ELISA of IgG2c and IgG1 were horseradish peroxidase conjugate goat anti-mouse IgG2c and IgG1 (Bethyl Laboratories, Montgomery, Tex.). On day 17, splenocytes were collected to prepare a single cell suspension using gentle MACS dissociator (miltenyi Biotech, Gladbach, Germany). […] IFNγ and IL-13 production was measured by ELISA.

[2] = tested on: mice; test: OVA specific serum IgE after immunization; details: i.m. day 0 and day 10, serum day 17
[3] = tested on: IRF3/7, STING, MyD88, IL-12, and type I IFN signaling
Method: The vertical axis of the left panel indicates the concentration of IFNγ (ng/ml), and the vertical axis of the right panel indicates the concentration of IL-13 (ng/ml). […] The splenocytes were stimulated for 48 hours with OVA.
On day 17, OVA specific sera IgG2c and IgG1 were measured by ELISA.
The vertical axis of the left panel indicates the concentration of IFNγ (ng/ml), and the vertical axis of the right panel indicates the concentration of IL-13 (ng/ml). […] (D) The splenocytes were stimulated for 48 hours with OVA proteins.
On day 17, OVA specific serum IgG2c and IgG1 were measured by ELISA. Further, splenocytes were stimulated for 48 hours with OVA to measure IFNγ production by ELISA.
On day 17, OVA specific sera IgG2c and IgG1 were measured by ELISA. Further, splenocytes were stimulated for 48 hours with an OVA protein to measure IFNγ production by ELISA.

| SMILES | serum anti-OVA IgG1 titer [1] | OVA-specific IL-13 production by splenocytes [1] | IgE of the serum in mice immunized with OVA [2] | adjuvant type ([1]; OVA immunization, antibody and T cell responses) | dependency of Th2 responses on type I IFN signaling ([3]; IFNAR KO mice) | dependency of induced antibody responses on type I IFN signaling ([3]; IFNAR KO mice) | dependency of induced T cell responses on IRF3/7 and MyD88 ([3]; IRF3/7 DKO and MyD88 KO mice) | dependency of induced antibody and T cell responses on STING ([3]; Tmem173gt mice) |
| --- | --- | --- | --- | --- | --- | --- | --- | --- |
| Nc1nc2c(ncn2[C@@H]2O[C@@H]3COP(=O)(O)O[C@H]4[C@@H](O)[C@H](n5cnc6c(=O)[nH]c(N)nc65)O[C@@H]4COP(=O)(O)O[C@H]3[C@H]2O)c(=O)[nH]1 [c-di-GMP] | high | production of OVA-specific IL-13 |  |  |  |  |  |  |
| Nc1nc2c(ncn2[C@@H]2O[C@@H]3COP(=O)(O)O[C@H]4[C@@H](O)[C@H](n5cnc6c(N)ncnc65)O[C@@H]4COP(=O)(O)O[C@H]3[C@H]2O)c(=O)[nH]1 [cGAMP, 3′3′-cGAMP] | high | production of OVA-specific IL-13 | induce IgE | type 2 adjuvant | not dependent thereon | dependent on type I IFN signaling | partially dependent on IRF3/7 and surprisingly dependent on MyD88 | completely dependent on STING |
| Cc1ccc2c(=O)c3cccc(CC(=O)O)c3oc2c1C [DMXAA] | high | production of OVA-specific IL-13 |  |  |  |  |  |  |
